From patent US6653290B2, “Tumor proliferation inhibitors” (Bristol-Myers Squibb Company, priority 2000, dated 2003)

Assays:
[1] = target: T1, purified human topoisomerase I (Homo sapiens, UniProt P11387); assay: Topoisomerase I activity (in vitro): compound-induced, topoisomerase I-mediated single strand breaks in PM2 DNA; type: biochemical; conditions: purified human topoisomerase I (Topogen), 30 minutes at 37° C., read-out: EC50 (median effective concentration for inducing topoisomerase I-mediated single strand breaks in DNA)
T1 construct: purchased Topogen
T1 sequence (P11387 1-765): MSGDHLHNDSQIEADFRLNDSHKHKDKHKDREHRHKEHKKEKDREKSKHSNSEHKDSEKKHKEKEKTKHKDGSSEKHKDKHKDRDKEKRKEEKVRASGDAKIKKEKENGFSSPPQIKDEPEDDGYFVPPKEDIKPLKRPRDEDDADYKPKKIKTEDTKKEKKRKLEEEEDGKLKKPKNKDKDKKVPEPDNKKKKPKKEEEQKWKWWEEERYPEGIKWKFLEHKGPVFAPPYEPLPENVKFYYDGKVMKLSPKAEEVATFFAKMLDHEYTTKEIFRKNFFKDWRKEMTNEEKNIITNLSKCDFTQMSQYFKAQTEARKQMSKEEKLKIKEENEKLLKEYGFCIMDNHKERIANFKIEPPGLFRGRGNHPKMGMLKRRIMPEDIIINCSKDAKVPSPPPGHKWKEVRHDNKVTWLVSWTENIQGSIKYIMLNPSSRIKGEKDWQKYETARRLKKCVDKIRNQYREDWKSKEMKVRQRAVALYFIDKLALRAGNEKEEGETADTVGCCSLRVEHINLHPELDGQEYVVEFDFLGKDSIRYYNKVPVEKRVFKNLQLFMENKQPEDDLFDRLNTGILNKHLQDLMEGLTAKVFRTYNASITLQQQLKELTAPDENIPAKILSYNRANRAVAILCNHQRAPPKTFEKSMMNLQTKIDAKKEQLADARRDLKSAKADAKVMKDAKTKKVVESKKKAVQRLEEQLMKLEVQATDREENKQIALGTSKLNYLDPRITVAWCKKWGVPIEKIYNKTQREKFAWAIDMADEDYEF
Experimental: Topoisomerase I activity was measured as described below. The procedure for assaying compound-induced, topoisomerase I-mediated single strand breaks in DNA was essentially that described by Hsiang, et al., (J. Biol. Chem. 1985, 260,14873-14878). Samples dissolved in 100% DMSO as either 10 μM or 10 mg/ml solutions, unless otherwise stated, were diluted in Tris-EDTA buffer. Marine bacteriophage PM2 DNA (Boehringer Mannheim) was also diluted in Tris-EDTA buffer to a concentration of 0.02 μg/μl. Different dilutions of compound being evaluated were mixed with diluted DNA and this mixture was added to 1000 unit (one unit of enzyme activity is defined as the amount capable of relaxing 100 ng of supercoiled DNA in approximately 30 minutes at 37° C.) aliquots of purified human topoisomerase I (Topogen) in 2×reaction buffer to start the reaction. The compound—DNA—enzyme mixture was incubated for 30 minutes at 37° C. before stopping the reaction with warm stop buffer containing sodium dodecyl sulfate and proteinase K (Sigma). These mixtures were allowed to incubate at 37° C. for another 10 minutes, at which time the mixtures were removed from the waterbath and extracted with a 24:1 mixture of chloroform/isoamyl alcohol. Following centrifugation, aliquots of the aqueous phases were placed in wells of a 0.9% agarose (SeaKem) gel in Tris-borate buffer containing 0.5 μg/ml of ethidium bromide and subjected to electrophoresis for 15 hours to separate the different topological isomers and nicked and broken DNAs. After destaining the gel in water, the ethidium bromide stained DNA reaction products were visualized by exposing the gel to UV irradiation. Negatives of photographs of the irradiated gels were scanned with a densitometer and areas under the peaks were calculated in order to obtain percent single strand DNA break formation for each sample. A median effective concentration (EC50) was obtained for each compound by interpolation between points of the resulting dose-effect curve which defines the potency of the compound for its effect in inducing topoisomerase I-mediated single strand breaks in DNA. The topoisomerase I activity for selected compounds of the present invention is shown below in Table I.

murine P388 cell line = assay: Cell-based cytotoxicity (XTT proliferation inhibition) against murine P388 cell line; conditions: Mus musculus, P388 cells, 72 h incubation, absorbance at 450 nm, read-out: IC50 (drug concentration required to inhibit cell proliferation to 50% of untreated control cells)
Experimental: The proliferation inhibition activity against murine P388 cell line was measured as follows. Evaluation of a soluble tetrazolium/formazan assay for cell growth and drug sensitivity in culture, using human and other tumor cell lines, was done according to the procedure described in Cancer Res. 1988, 48, 4827-4833. Cells were plated at 4000 cells/well in 96 well microtiter plates and 24 h later drugs were added and serially diluted. The cells were incubated at 37° C. for 72 h, at which time a tetrazolium dye, XTT, containing phenazine methosulfate was added. A dehydrogenase enzyme in live cells reduced the XTT to a form that absorbs light at 450 nm, which could be quantitated spectrophotometrically. The greater the absorbance the greater the number of live cells. The results are expressed as an IC50, which is the drug concentration required to inhibit cell proliferation (i.e., absorbance at 450 nm) to 50% of that of untreated control cells.

| Compound | EC50 [1] | IC50 (murine P388 cell line) |
| --- | --- | --- |
| CCOC1(C)CC(O)C(O)C(n2c3ccc(F)cc3c3c4c(c5c6cc(F)ccc6[nH]c5c32)C(=O)NC4=O)O1 [Example 10, 3,9-Difluoro-12-(4,6-dideoxy-5-ethoxy-6-D-glucopyranosyl)-6,7, 12, 13-tetrahydro(5H)indolo[2,3-a]pyrrolo[3,4-c]carbazole-5,7-dione] |  | 55 nM |
| CC(C)OC1(C)CC(O)C(O)C(n2c3ccc(F)cc3c3c4c(c5c6cc(F)ccc6[nH]c5c32)C(=O)NC4=O)O1 [Example 11, 3,9-Difluoro-12-(4,6-dideoxy-5-isopropoxy-δ-D-glucopyranosyl)-6,7, 12, 13-tetrahydro(5H)indolo[2,3-a]pyrrolo[3,4-c]carbazole-5,7-dione] |  | 200 nM |
| CO[C@@]1(C)C[C@H](O)[C@@H](O)[C@H](n2c3ccc(F)cc3c3c4c(c5c6cc(F)ccc6[nH]c5c32)C(=O)NC4=O)O1 [Example 9, 3,9-Difluoro-12-(4,6-dideoxy-5-methoxy-β-D-glucopyranosyl)-6,7, 12, 13-tetrahydro(5H)indolo[2,3-a]pyrrolo[3,4-c]carbazole-5,7-dione] |  | 7 nM |
| COC1(C)CC(O)C(O)C(n2c3cc(F)c(F)cc3c3c4c(c5c6cc(F)c(F)cc6sc5c32)C(=O)NC4=O)O1 [Example 12, 2,3,9, 10-Tetrafluoro-12-(4,6-dideoxy-5-methoxy-δ-D-glucopyranosyl)-6,7, 12, 13-tetrahydro(5H)benzo[b]thieno[2,3-a]pyrrolo[3,4-c]carbazole-5,7-dione] |  | 69 nM |
| CO[C@]1(CO)O[C@@H](n2c3cc(F)c(F)cc3c3c4c(c5c6cc(F)c(F)cc6[nH]c5c32)C(=O)NC4=O)[C@H](O)[C@@H](O)[C@@H]1O [Example 7, 2,3,9, 10-Tetrafluoro-12-(5-methoxy-β-D-glucopyranosyl)-6,7, 12, 13-tetrahydro(5H)indolo[2,3-a]pyrrolo[3,4-c]carbazole-5,7-dione] | 270 nM | 250 nM |

Second part, led by results:

| EC50 [1] | Compound | IC50 (murine P388 cell line) |
| --- | --- | --- |
| 70 nM | CO[C@@]1(C)C[C@H](O)[C@@H](O)[C@H](n2c3cc(F)c(F)cc3c3c4c(c5c6cc(F)c(F)cc6[nH]c5c32)C(=O)NC4=O)O1 [Example 6, 2 , 3,9, 10-Tetrafluoro-12-(4,6-dideoxy-5-methoxy-β-D-glucopyranosyl) -6,7, 12, 13-tetrahydro(5H)indolo[2,3-a]pyrrolo[3,4-c]carbazole-5,7-dione] | 50 nM |
| 40 nM | O=C1NC(=O)c2c1c1c3cc(F)c(F)cc3[nH]c1c1c2c2cc(F)c(F)cc2n1[C@@H]1OC(CO)(CO)C[C@H](O)[C@H]1O [Example 1, 2,3,9, 10-Tetrafluoro-12-[5-C-(hydroxymethyl)-4-deoxy-β-D-glucopyranosyl]-indolo[2,3-a]pyrrolo[3,4-c]carbazole-5,7-dione] | 35 nM |
| 50 nM | CO[C@@]1(CO)C[C@H](O)[C@@H](O)[C@H](n2c3cc(F)c(F)cc3c3c4c(c5c6cc(F)c(F)cc6[nH]c5c32)C(=O)NC4=O)O1 [Example 8, 2,3,9, 10-Tetrafluoro-12-(4-deoxy-5-methoxy-β-D-glucopyranosyl) -6,7, 12, 13-tetrahydro(5H)indolo[2,3-a]pyrrolo[3,4-c]carbazole-5,7-dione] | 35 nM |
